Data on one compound can be found in US10047067B2, “Composition for treating kidney disease comprising pyrazole derivative” (Ewha University-Industry Collaboration Foundation, priority 2012, dated 2018).

The experiment concerns collagen Iα1 expression in proximal tubular cells (mProx24). Nature of the experiment: Inhibitory effect on collagen Iα1 expression in proximal tubular cells (hTGF-β1 stimulated, real-time PCR). Format: cell-based. The note with it: Mus musculus. How it is done:
mProx24, which is a name of the proximal tubular cells derived from proximal tubule segments obtained by finely sectioning the kidney of adult C57BL6/J mice, was granted from Professor Sugaya, St. Marianna University School of Medicine, Kanagawa, Japan. mProx24 was cultured in DMEM (Dulbecco's modified Eagle's medium) supplemented with 10% fetal calf serum (FCS, Gibco), 100 U/ml penicillin, 100 μg/ml streptomycin, and 44 mM NaHCO3 at 37° C. in a 5% CO2 atmosphere. For quantitation of RNA expression, the cells were cultured in 6-well plates. When the cells grew 90% confluent, the medium was changed with a fresh 0.15% FCS (Gibco)-supplemented DMEM. Incubation in this medium for 24 hrs halted the cell growth to synchronize the growth cycle in the cells. Compounds of Examples 1 to 9 and Comparative Example were respectively dissolved in DMSO (dimethylsulfoxide) to form a concentration of 50 mM, and subjected to serial dilution to 10 mM, 1 mM, 0.1 mM, and 0.01 mM. 10 mM, 1 mM, 0.1 mM, and 0.01 mM solutions of each of the compounds of Examples 1 to 9 and Comparative Example were 1,000-fold diluted in 0.15% FCS (Gibco)-supplemented DMEM to form final concentrations of 10 μM, 1 μM, 0.1 μM, and 0.01 μM, respectively. In addition, 0 μM (DMSO 1 μL) was used. The cells were incubated for 1 hr in the dilutions and then for 6 hrs in the presence of 5 ng/ml recombinant human transforming growth factor-β1 (hTGF-β1, R&D Systems). For the control, hTGF-β1 was not used. Total RNA was extracted from mProx24 using Trizol (Invitrogen). For quantitation of mRNA expression, a reaction volume of 20 μL including cDNA transcripts, primer pairs, and SYBR Green PCR Master Mix (Applied Biosystems) was subjected to real-time PCR with the aid of StepOnePlus (Applied Biosystems) (real-time PCR condition: 95° C., 10 min→40 thermal cycles of denaturation at 95° C. for 15 sec and primer annealing at 60° C. for 1 min→95° C. for 15 sec, 60° C. for 1 min, and 95° C. for 15 sec to measure a melting curve). Quantitation was normalized to 18S rRNA expression level. A pair of primers for mouse collagen Iα1 were 5′-[…]-3′(SEQ ID NO: 13) and 5′-[…]-3′ (SEQ ID NO: 14). Forward and reverse primers for mouse r18S rRNA were 5′-CGAAAGCATTTGCCAAGAAT-3′ (SEQ ID NO: 11) and 5′-AGTCGGCATCGTTTATGGTC-3′ (SEQ ID NO: 12), respectively.
Experiment results are given in Tables 3 to 12 and FIGS. 4 to 13. Tables 3 to 12 and FIGS. 4 to 13 show inhibitory effects of the compounds of Examples 1 to 9 and Comparative Example 1 on collagen Iα1 expression in proximal tubular cells.
Data of Tables 3 to 12 and FIGS. 4 to 13 are measurements of experiments repeated three to five times for each concentration, and are expressed as mean±standard error (SE). Statistic comparison among the groups was analyzed by ANOVA and Fisher's least significant difference test, with significance at p<0.05. *P<0.05 vs. WT, †P<0.05 vs. DM.
In Tables 3 to 12, mean values of expression level ratios of collagen Iα1 (Col1α) to 18S rRNA (18S), and % inhibition against collagen Iα1 expression for each group are shown, together with IC50 value (μM). In this regard, % inhibition means relative inhibition to 100% for the control and 0% for the group that was treated with hTGF-β1 but not with any of the compounds of Examples or Comparative Example.

On to `CCCc1c(-c2ccccc2)nn(-c2ccccn2)c1O.Cl` [Compound 18-278, 1-(pyridin-2-yl)-3-phenyl-4-propyl-1H-pyrazol-5-ol.HCl], for which, under “Col1, 0.01 μM compound, mProx24, 5 ng/ml hTGF-β1 6 hrs, relative to hTGF-β1 alone = 1, read-out: Mean expression level ratio of collagen Iα1 (Col1α) to 18S rRNA”, the mrna remaining at 0.01 µM was determined as 82.1%. Besides, for the setting “Col1, 0.1 μM compound, mProx24, 5 ng/ml hTGF-β1 6 hrs, relative to hTGF-β1 alone = 1, read-out: Mean expression level ratio of collagen Iα1 (Col1α) to 18S rRNA”, the mrna remaining at 0.1 µM is 70.1%. Moreover, the mrna remaining at 1 µM (Col1, 1 μM compound, mProx24, 5 ng/ml hTGF-β1 6 hrs, relative to hTGF-β1 alone = 1, read-out: Mean expression level ratio of collagen Iα1 (Col1α) to 18S rRNA) came out at 51.6%. Moreover, the mrna remaining at 10 µM (Col1, 10 μM compound, mProx24, 5 ng/ml hTGF-β1 6 hrs, relative to hTGF-β1 alone = 1, read-out: Mean expression level ratio of collagen Iα1 (Col1α) to 18S rRNA) is 36.9%. Also, the inhibition (commonly the percentage by which the read-out fell short of the control) at 0.01 µM (0.01 μM compound, mProx24, 100% = control without hTGF-β1, 0% = hTGF-β1 alone, read-out: expression inhibition rate (collagen Iα1)) is 20%. Further, the inhibition at 0.1 µM (0.1 μM compound, mProx24, 100% = control without hTGF-β1, 0% = hTGF-β1 alone, read-out: expression inhibition rate (collagen Iα1)) was determined as 33.5%. In addition, the inhibition at 1 µM (1 μM compound, mProx24, 100% = control without hTGF-β1, 0% = hTGF-β1 alone, read-out: expression inhibition rate (collagen Iα1)) turned out to be 54.2%. Moreover, the inhibition at 10 µM (10 μM compound, mProx24, 100% = control without hTGF-β1, 0% = hTGF-β1 alone, read-out: expression inhibition rate (collagen Iα1)) was 70.7%. For the same compound, for the setting “mProx24, hTGF-β1 stimulated, read-out: IC50 (inhibition of collagen Iα1 expression)”, the IC50 (in general, the midpoint of a concentration-inhibition curve) is 742 nM.
